We go through three compounds from patent publication EP2435433B1, “(DIHYDRO)IMIDAZOISO[5,1-A]QUINOLINES AS FSH RECEPTOR AGONISTS FOR THE TREATMENT OF FERTILITY DISORDERS” (Merck Sharp & Dohme B.V., priority 2009, dated 2010).

Usually EC50 stands for the concentration at which the effect is half-maximal.

For the test, the target named is T1, human FSH receptor (Homo sapiens, UniProt P23945).
T1 construct: expressed in transfected cells; host or cells: Chinese Hamster Ovary (CHO) cells, stably transfected, cotransfected with CRE/promotor-firefly luciferase reporter
T1 sequence (P23945 18-695): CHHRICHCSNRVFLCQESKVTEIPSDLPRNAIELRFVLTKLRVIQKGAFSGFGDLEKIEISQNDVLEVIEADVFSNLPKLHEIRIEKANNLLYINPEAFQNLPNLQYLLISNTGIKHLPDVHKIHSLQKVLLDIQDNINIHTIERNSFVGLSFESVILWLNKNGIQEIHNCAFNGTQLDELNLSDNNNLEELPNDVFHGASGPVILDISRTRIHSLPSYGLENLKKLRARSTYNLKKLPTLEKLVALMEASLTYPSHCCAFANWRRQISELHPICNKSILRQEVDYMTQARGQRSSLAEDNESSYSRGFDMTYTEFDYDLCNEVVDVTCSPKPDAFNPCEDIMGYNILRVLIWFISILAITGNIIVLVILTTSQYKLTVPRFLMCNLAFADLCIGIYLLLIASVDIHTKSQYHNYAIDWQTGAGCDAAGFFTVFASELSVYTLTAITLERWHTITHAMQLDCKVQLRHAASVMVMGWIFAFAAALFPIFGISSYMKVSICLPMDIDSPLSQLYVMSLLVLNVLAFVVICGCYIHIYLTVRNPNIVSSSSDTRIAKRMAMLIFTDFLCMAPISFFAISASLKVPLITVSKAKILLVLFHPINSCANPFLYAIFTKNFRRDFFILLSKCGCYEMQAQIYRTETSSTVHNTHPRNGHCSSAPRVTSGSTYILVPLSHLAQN
As to the kind of experiment: Agonistic activity of compounds at the human FSH receptor expressed in CHO cells, CRE/luciferase reporter (hFSHRago (CHO luc)). It counts as cell-based. As to conditions: CHO cells stably transfected with the human FSH receptor and CRE/firefly luciferase reporter; 4 hours of incubation; half-maximal stimulation relative to the compound's own maximal effect; read-out: hFSHRago (CHO luc) EC50. Summed up:
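CHO cells stably expressing human FSH receptor with CRE/firefly luciferase reporter, incubated 4 h at 37 °C with compounds (0.0316 nM–10.0 µM, duplicate, 1% DMSO final) in insulin/apo-transferrin-supplemented medium. Luminescence read after lysis; EC50 relative to compound's own maximum, efficacy as % of recombinant human FSH maximum.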
In general terms: In a reporter assay the amount or activity of a reporter protein is the signal.
Take `COc1cc2c(cc1OC)-c1c(-c3ccccc3)nc(C(=O)N3CCCCCC3)n1CC2` [Example 49d, Azepan-1-yl-(8,9-dimethoxy-1-phenyl-5,6-dihydro-imidazo[5,1-a]isoquinolin-3-yl)-methanone]: the EC50 came out at 630 nM.
For `COc1cc2c(cc1OC)-c1c(-c3ccc(F)cc3)nc(C(=O)N3CCCN(C(C)=O)CC3)n1CC2` [Example 50e, 1-{4-[1-(4-Fluoro-phenyl)-8,9-dimethoxy-5,6-dihydro-imidazo[5,1-a]isoquinoline-3-carbonyl]-[1,4]diazepan-1-yl}-ethanone] the value was 315 nM; for `COc1cc2c(cc1SC(C)C)-c1c(-c3cccs3)nc(C(=O)N(C)C(C)(C)C)n1CC2` [Example 52c, 9-Isopropylsulfanyl-8-methoxy-1-thiophen-2-yl-5,6-dihydro-imidazo[5,1-a]isoquinoline-3-carboxylic acid tert-butyl-methyl-amide], 16 nM.
